From article PMC11149885 (PLOS ONE, 2024)
Several values for one entry are separate records, joined by “and”; a condition that tells them apart may be missing. Equal values may be shown once. Read-outs that look alike come from different tables or passages of the source.

Legend:
[1] = 634 ug, cited from earlier work
[2] = target: T1, VEGFR2 (Homo sapiens, UniProt P35968); experiment: Ten-dose IC50 measurement; format: biochemical; details: 10μM ATP
T1 construct: purchased Millipore Corporation (Dundee, Scotland) or Reaction Biology Corporation (contract assay)

[3] = target: T2, FGFR3 (Homo sapiens, UniProt P22607); experiment: HotSpot kinase screen; format: biochemical; details: 10μM ATP
T2 construct: purchased Reaction Biology Corporation (contract assay)

[4] = target: T3, TIE2 (Homo sapiens, UniProt Q02763); experiment: HotSpot kinase screen; format: biochemical; parameters: purchased Reaction Biology Corporation (contract assay); details: 10μM ATP
[5] = target: T4, VEGFR1 (Homo sapiens, UniProt P17948); experiment: HotSpot kinase screen; format: biochemical; parameters: purchased Millipore Corporation (Dundee, Scotland) or Reaction Biology Corporation (contract assay); details: 10μM ATP
Description: Measurement of kinase activity was performed by Reaction Biology Corporation (Reaction Biology Corporation, Malvern, PA), using the HotSpot™ assay. The screen focused on RTKs reported in the literature to play a major role in the regulation of angiogenesis (VEGFR1, VEGFR2, and VEGFR3; fibroblast growth factor receptor [FGFR] 1, 2, and 3; and platelet-derived growth factor receptor beta [PDGFRβ]) as well as an RTK essential for maintaining blood vessel stability (TIE2). For the profiling, specific kinase/substrate pairs and required cofactors were prepared in a reaction buffer (20mM Hepes [pH 7.5], 10mM MgCl2, 1mM EGTA, 0.02% Brij35, 0.02 mg/mL BSA, 0.1mM Na3VO4, 2mM DTT, 1% dimethyl sulfoxide [DMSO]). TKI compounds were diluted to 10μM and 1μM concentrations for the screens and after addition to the reaction buffer incubated for 20 minutes, followed by the addition of a mixture of ATP (Sigma, St. Louis, MO) and ^33P-ATP (Perkin Elmer, Waltham, MA) to a final ATP concentration of 10μM. Reactions were carried out at room temperature for 2 hours, followed by spotting of the reactions onto P81 ion exchange filter paper (Whatman Inc., Piscataway, NJ). Unbound phosphate was removed by extensive washing of the filters. […] Kinome TREEspot images representing levels of inhibition were prepared using Kinome Mapper (https://www.reactionbiology.com/resources/tools/kinase-mapper).

[6] = system: VEGF-induced angiogenesis on the CAM; experiment: Gelatin sponge chick chorioallantoic membrane (CAM) assay
[7] = target: T5, FGFR1 (Homo sapiens, UniProt P11362); experiment: HotSpot kinase screen; format: biochemical; details: 10μM ATP
T5 construct: purchased Reaction Biology Corporation (contract assay)

[8] = target: T3, TIE2; experiment: Ten-dose IC50 measurement
[9] = target: T4, VEGFR1; experiment: Ten-dose IC50 measurement

T4 sequence (P17948 27-1338): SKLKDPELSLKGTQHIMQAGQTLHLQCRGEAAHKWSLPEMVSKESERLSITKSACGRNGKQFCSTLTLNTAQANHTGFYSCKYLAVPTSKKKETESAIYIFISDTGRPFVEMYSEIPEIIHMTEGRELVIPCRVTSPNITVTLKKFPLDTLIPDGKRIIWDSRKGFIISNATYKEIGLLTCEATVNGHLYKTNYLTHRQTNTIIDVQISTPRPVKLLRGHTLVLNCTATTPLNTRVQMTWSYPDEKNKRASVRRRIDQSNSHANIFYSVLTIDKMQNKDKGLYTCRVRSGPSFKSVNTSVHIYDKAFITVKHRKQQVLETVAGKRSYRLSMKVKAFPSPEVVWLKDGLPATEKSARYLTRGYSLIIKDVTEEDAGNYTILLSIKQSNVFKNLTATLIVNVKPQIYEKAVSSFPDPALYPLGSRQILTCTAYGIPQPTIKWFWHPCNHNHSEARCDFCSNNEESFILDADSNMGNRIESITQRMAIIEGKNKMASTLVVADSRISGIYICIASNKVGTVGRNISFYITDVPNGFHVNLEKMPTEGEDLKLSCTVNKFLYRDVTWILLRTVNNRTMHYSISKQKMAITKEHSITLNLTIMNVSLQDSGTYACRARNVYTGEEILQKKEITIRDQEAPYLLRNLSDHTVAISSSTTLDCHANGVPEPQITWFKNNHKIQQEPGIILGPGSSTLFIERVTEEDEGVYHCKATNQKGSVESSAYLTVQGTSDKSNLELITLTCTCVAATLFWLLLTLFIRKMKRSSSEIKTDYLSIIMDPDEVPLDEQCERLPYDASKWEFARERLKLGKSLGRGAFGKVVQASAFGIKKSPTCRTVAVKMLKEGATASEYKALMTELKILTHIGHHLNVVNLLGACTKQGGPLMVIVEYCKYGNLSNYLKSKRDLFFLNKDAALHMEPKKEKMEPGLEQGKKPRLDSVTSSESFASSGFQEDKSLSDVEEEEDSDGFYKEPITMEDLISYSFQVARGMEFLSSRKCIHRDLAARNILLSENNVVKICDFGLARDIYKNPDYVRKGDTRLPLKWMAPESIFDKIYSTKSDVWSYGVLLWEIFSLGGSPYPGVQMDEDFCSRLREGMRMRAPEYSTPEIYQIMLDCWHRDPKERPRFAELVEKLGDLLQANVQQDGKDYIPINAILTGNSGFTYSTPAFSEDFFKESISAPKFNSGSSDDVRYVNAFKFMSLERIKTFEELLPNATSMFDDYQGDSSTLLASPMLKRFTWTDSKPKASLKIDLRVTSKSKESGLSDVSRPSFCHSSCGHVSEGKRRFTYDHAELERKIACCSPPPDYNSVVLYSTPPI
T3 sequence (Q02763 23-1124): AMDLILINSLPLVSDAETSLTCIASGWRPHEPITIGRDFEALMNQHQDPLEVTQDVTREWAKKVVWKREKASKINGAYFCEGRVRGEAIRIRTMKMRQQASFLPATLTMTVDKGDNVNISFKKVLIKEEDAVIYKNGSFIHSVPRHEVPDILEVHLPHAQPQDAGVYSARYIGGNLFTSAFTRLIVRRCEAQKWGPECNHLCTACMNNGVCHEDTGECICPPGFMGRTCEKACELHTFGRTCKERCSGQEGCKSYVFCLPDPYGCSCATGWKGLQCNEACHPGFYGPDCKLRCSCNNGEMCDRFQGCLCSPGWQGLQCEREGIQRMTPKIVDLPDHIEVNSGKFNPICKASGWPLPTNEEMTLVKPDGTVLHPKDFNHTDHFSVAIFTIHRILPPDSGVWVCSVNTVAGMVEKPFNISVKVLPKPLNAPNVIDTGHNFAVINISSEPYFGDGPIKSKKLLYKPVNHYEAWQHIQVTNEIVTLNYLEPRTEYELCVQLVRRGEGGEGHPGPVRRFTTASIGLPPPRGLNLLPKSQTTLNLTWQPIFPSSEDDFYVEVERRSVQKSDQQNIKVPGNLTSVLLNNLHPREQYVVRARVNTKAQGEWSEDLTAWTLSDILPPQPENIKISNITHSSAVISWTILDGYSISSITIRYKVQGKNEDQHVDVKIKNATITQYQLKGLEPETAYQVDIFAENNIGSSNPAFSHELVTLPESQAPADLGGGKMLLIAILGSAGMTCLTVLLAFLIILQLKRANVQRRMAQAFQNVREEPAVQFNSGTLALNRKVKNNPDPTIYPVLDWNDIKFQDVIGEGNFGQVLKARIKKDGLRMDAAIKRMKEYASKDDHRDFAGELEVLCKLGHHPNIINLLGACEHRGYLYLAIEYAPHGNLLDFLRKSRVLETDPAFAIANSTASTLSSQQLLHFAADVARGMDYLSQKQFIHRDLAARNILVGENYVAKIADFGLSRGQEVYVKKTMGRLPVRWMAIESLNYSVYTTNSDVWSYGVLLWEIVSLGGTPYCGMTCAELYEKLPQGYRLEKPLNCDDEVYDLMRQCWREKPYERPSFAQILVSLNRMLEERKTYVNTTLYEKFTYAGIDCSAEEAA
T1 sequence (P35968 20-1356): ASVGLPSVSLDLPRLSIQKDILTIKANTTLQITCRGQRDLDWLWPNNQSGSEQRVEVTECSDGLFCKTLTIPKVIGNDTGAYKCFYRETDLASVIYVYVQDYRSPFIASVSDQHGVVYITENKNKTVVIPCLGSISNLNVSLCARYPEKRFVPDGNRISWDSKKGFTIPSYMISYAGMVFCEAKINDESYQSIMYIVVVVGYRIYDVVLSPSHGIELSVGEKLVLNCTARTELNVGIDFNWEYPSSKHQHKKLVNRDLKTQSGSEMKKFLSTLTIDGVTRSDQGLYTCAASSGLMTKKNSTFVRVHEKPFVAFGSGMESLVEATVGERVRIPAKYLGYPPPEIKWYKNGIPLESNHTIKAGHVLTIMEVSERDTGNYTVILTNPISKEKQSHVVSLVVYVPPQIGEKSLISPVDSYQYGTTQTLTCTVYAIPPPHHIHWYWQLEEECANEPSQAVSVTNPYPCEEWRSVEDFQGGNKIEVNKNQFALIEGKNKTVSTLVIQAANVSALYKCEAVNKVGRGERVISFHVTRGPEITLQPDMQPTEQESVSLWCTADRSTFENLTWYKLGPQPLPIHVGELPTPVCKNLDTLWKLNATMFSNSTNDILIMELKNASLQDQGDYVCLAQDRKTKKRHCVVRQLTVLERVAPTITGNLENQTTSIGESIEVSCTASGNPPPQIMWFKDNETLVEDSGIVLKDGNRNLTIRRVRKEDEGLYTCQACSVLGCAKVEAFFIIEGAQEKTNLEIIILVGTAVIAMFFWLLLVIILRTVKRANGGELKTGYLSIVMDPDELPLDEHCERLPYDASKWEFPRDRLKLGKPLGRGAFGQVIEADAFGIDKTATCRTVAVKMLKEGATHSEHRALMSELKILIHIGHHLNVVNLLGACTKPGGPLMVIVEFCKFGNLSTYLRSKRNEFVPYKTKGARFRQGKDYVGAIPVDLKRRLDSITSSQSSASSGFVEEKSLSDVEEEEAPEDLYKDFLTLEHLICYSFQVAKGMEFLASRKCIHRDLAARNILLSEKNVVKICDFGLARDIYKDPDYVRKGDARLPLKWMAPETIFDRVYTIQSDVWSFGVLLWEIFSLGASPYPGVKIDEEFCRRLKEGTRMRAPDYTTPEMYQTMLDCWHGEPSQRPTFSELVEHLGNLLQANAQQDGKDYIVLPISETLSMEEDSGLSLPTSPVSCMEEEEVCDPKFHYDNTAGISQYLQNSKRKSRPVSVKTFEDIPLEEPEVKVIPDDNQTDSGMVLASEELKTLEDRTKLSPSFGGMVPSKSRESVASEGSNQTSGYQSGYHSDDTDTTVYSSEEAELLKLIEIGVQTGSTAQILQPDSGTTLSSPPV
T5 sequence (P11362 22-822): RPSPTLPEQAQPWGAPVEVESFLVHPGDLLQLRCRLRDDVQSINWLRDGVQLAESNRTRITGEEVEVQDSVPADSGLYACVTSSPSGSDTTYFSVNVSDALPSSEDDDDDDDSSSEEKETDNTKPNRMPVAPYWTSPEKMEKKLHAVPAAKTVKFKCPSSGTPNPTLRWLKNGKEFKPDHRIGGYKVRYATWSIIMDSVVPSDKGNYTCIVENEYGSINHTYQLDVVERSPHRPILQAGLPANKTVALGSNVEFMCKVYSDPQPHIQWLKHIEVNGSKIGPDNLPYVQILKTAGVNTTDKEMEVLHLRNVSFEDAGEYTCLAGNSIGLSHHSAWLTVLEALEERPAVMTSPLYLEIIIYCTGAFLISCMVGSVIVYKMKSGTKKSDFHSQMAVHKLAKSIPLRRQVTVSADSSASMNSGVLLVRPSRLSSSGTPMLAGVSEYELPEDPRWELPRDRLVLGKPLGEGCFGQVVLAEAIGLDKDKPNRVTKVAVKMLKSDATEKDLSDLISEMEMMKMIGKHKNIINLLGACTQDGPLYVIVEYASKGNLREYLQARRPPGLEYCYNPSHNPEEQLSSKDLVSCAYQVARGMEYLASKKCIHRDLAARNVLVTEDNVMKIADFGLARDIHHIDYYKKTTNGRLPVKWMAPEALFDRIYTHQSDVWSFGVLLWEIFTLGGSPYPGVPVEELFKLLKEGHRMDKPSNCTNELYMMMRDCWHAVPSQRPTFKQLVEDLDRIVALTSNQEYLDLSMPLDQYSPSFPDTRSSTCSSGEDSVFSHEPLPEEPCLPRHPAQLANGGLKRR

Cc1[nH]c(/C=C2\C(=O)Nc3ccc(F)cc32)c(C)c1C(=O)N[C@H]1CCN(C(=O)N(C)C)C1 [Vorolanib]
Concentration, choroid ([1]; 2 days post-treatment): 124 µg/g | Concentration, choroid ([1]; 14 days post-treatment): 52 µg/g | Concentration, choroid ([1]; 29 days post-treatment): 74 µg/g | Concentration, choroid ([1]; 62 days post-treatment): 206 µg/g | Concentration, choroid ([1]; 120 days post-treatment): 109 µg/g | Concentration, choroid ([1]; 182 days post-treatment): 200 µg/g | Concentration, choroid ([1]; 240 days post-treatment): 293 µg/g | Concentration, retina ([1]; 2 days post-treatment): 208.6 µg/g | Concentration, retina ([1]; 14 days post-treatment): 223.3 µg/g | Concentration, retina ([1]; 29 days post-treatment): 143.1 µg/g | Concentration, retina ([1]; 62 days post-treatment): 136.3 µg/g | Concentration, retina ([1]; 120 days post-treatment): 434.5 µg/g | Concentration, retina ([1]; 182 days post-treatment): 243.2 µg/g | Concentration, retina ([1]; 240 days post-treatment): 122.5 µg/g | IC50 ([2]; S1 Dataset, read-out: IC50 VEGFR2): 7.61e-08 M | %Activity VEGFR2 ([2]; 1.00E-05 M TKI): 7.53% | %Activity VEGFR2 ([2]; 1.11E-06 M TKI): 15.96% | %Activity VEGFR2 ([2]; 1.23E-07 M TKI): 39.66% | %Activity VEGFR2 ([2]; 1.37E-08 M TKI): 76.92% | %Activity VEGFR2 ([2]; 1.52E-09 M TKI): 90.70% | %Activity VEGFR2 ([2]; 3.33E-06 M TKI): 8.61% | %Activity VEGFR2 ([2]; 3.70E-07 M TKI): 24.16% | %Activity VEGFR2 ([2]; 4.12E-08 M TKI): 62.72% | %Activity VEGFR2 ([2]; 4.57E-09 M TKI): 90.18% | %Activity VEGFR2 ([2]; 5.08E-10 M TKI): 99.81% | IC50 ([2]; Fig 3A inset, unit inferred, plot axes in (M), read-out: Compound IC50 data for VEGFR-2: IC50): 7.61e-08 M | Avg % Inhibition FGFR3 ([3]; 1uM TKI): 63.96% | Avg % Inhibition FGFR3 ([3]; 10uM TKI): 86.13% | Avg % Inhibition TIE2 ([4]; 1uM TKI): 4.09% | Avg % Inhibition TIE2 ([4]; 1uM TKI, listed as vorolanib): 4% | Avg % Inhibition TIE2 ([4]; 10uM TKI): 21.27% | Avg % Inhibition TIE2 ([4]; 10uM TKI, listed as vorolanib): 21% | Avg % Inhibition VEGFR1 ([5]; 1uM TKI): 54.61% | Avg % Inhibition VEGFR1 ([5]; 10uM TKI): 77.43% | Angiogenesis - Vessel number, Mean ([6]; TKI at 200 x VEGFR2 IC50): 8.7 | Angiogenesis - Vessel number, individual egg ([6]; TKI at 200 x VEGFR2 IC50, one value per egg): 1.33 and 10.33 and 14 and 8.33 and 9.33 and 9 | reduction of the number of blood vessels perfusing the sponges vs negative control ([6]; TKI at 200× VEGFR2 IC50 dose): 37.1% | reduction of the number of blood vessels perfusing the sponges vs negative control ([6]; TKI at VEGFR2 IC50 dose): 39.9% | Angiogenesis - Vessel thickness score, Mean ([6]; TKI at VEGFR2 IC50 dose, score 0-3): 1.2 | Angiogenesis - Vessel thickness score, individual egg ([6]; TKI at VEGFR2 IC50 dose, score 0-3, one value per egg): 0 and 1.67 and 1.33 and 1 and 0.67 and 2.33 | Avg % Inhibition FGFR1 ([7]; 1uM TKI): 28.53% | Avg % Inhibition FGFR1 ([7]; 10uM TKI): 65.32% | %Activity TIE2 ([8]; 1.00E-05 M TKI, 10μM ATP): 69.30% | %Activity TIE2 ([8]; 1.11E-06 M TKI, 10μM ATP): 100.16% | %Activity TIE2 ([8]; 1.37E-08 M TKI, 10μM ATP): 100.50% | %Activity TIE2 ([8]; 1.52E-09 M TKI, 10μM ATP): 103.72% | %Activity TIE2 ([8]; 3.33E-06 M TKI, 10μM ATP): 83.50% | %Activity TIE2 ([8]; 3.70E-07 M TKI, 10μM ATP): 100.13% | %Activity TIE2 ([8]; 4.12E-08 M TKI, 10μM ATP): 99.77% | %Activity TIE2 ([8]; 4.57E-09 M TKI, 10μM ATP): 100.65% | %Activity TIE2 ([8]; 5.08E-10 M TKI, 10μM ATP): 98.18% | IC50 ([8]; IC50 TIE2, 10μM ATP, S1 Dataset): 20700 nM | IC50 ([8]; TIE2 IC50, determined by Reaction Biology (US), 10μM ATP): 20700 nM | %Activity VEGFR1 ([9]; 1.00E-05 M TKI, 10μM ATP): 15.82% | %Activity VEGFR1 ([9]; 1.11E-06 M TKI, 10μM ATP): 42.07% | %Activity VEGFR1 ([9]; 1.37E-08 M TKI, 10μM ATP): 89.38% | %Activity VEGFR1 ([9]; 1.52E-09 M TKI, 10μM ATP): 85.26% | %Activity VEGFR1 ([9]; 3.33E-06 M TKI, 10μM ATP): 22.84% | %Activity VEGFR1 ([9]; 3.70E-07 M TKI, 10μM ATP): 64.45% | %Activity VEGFR1 ([9]; 4.12E-08 M TKI, 10μM ATP): 79.63% | %Activity VEGFR1 ([9]; 4.57E-09 M TKI, 10μM ATP): 88.85% | IC50 ([9]; Compound IC50 data for VEGFR-1: IC50, Fig 3A inset, unit inferred, plot axes in (M), 10μM ATP): 9.44e-07 M | IC50 ([9]; IC50 VEGFR1, 10μM ATP, S1 Dataset): 9.44e-07 M
